Drawing on patent US20160257697A1, “THIOPHENE-SUBSTITUTED TETRACYCLIC COMPOUNDS AND METHODS OFUSE THEREOF FOR THE TREATMENT OF VIRAL DISEASES” (priority 2013, published 2016), this text covers IC50 for 23 compounds.

Like-named read-outs stand apart in the source and are kept apart here.

Test in all cases: microbe, parasite or virus in culture
Common to all, as to assay type: cell-based, Hepatitis C virus (HCV)

Test [1] deals with HCV replicon 1AY93H. The following applies: Replicon Assay A. In a few lines:
(§1)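 Compound is added to replicon cells plated at 2000 cells/well (0.5% DMSO, 5% FBS). After 3 days the cells are washed and lysed, and HCV RNA and cyclophilin mRNA are quantified by multiplex RT-PCR against a standard curve of known replicon total RNA.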

Test [2] relates to HCV replicon 2B. The following applies: Replicon Assay A. In a few lines:
as §1

Test [3] deals with HCV replicon 1A. The following applies: replicon 1A, Replicon Assay A. The method in brief:
as §1

[4] abbreviates: Hepatitis C virus, read-out: 1A Y93H IC50 (nM), replicon 1AY93H.
Setting [5] is: read-out: 1A Y93H IC50, replicon 1AY93H.

Regarding `COC(=O)N[C@H](C(=O)N1CCC[C@H]1c1ncc(-c2cc(F)c3c(c2)OC(c2ccc(C4CC4)s2)n2c-3cc3cc(-c4cnc([C@@H]5CCCN5C(=O)[C@@H](NC(=O)OC)C5CCOCC5)[nH]4)ccc32)[nH]1)C(C)C` (single isomer, unassigned) [Compound 126], the IC50 in test [1] (setting [4]) is 0.27 nM; in test [2] (Hepatitis C virus, read-out: 2B IC50 (nM), replicon 2B) it was 0.21 nM; in test [3] (Hepatitis C virus) it was 1.9 pM.
Consider `COC(=O)NC(C(=O)N1CCC[C@H]1c1ncc(-c2ccc3c(c2)cc2n3C(c3cc(C)c(C)s3)Oc3cc(-c4cnc([C@@H]5CCCN5C(=O)[C@@H](NC(=O)OC)C5CCOCC5)[nH]4)cc(F)c3-2)[nH]1)C(C)(C)F` (single isomer, unassigned) [Compound 129], for which the IC50 is 0.8 nM in test [1] (setting [5]); 1.17 nM in test [2] (read-out: 2B IC50, replicon 2B); 1 pM in test [3].
`COC(=O)NC(C(=O)N1CCC[C@H]1c1ncc(-c2ccc3c(c2)cc2n3C(c3cc(C)c(C)s3)Oc3cc(-c4cnc([C@@H]5CCCN5C(=O)[C@@H](NC(=O)OC)C5CCOCC5)[nH]4)cc(F)c3-2)[nH]1)C(C)(C)F` (single isomer, unassigned) [Compound 131]: the IC50 in test [1] (setting [5]) was determined as 3.83 nM; in test [2] (read-out: 2B IC50, replicon 2B), 9.78 nM; in test [3], 7.8 pM.
For `COC(=O)N[C@H](C(=O)N1CCC[C@H]1c1ncc(-c2cc(F)c3c(c2)OC(c2ccc(C(C)C(F)(F)F)s2)n2c-3cc3cc(-c4cnc([C@@H]5CCCN5C(=O)[C@@H](NC(=O)OC)C(C)C)[nH]4)ccc32)[nH]1)C(C)C` (single isomer, unassigned) [Compound 132], the IC50 in test [1] (setting [4]) turned out to be 4.93 nM; in test [2] (read-out: 2B IC50, replicon 2B), 6 nM; in test [3] (Hepatitis C virus) it was 3.2 pM.
Take `COC(=O)NC(C(=O)N1CCC[C@H]1c1ncc(-c2ccc3c(c2)cc2n3C(c3ccc(C4CC4)s3)Oc3cc(-c4cnc([C@@H]5CCCN5C(=O)[C@@H](NC(=O)OC)C(C)C)[nH]4)cc(F)c3-2)[nH]1)C1CCO[C@H](C)C1` (single isomer, unassigned) [Compound 137]: the IC50 came out at 0.28 nM in test [1] (setting [5]); 0.37 nM in test [2] (read-out: 2B IC50, replicon 2B); 1.8 pM in test [3].
Regarding `COC(=O)NC(C(=O)N1CCC[C@H]1c1ncc(-c2ccc3c(c2)cc2n3C(c3ccc(C4CC4)s3)Oc3cc(-c4cnc([C@@H]5CCCN5C(=O)[C@@H](NC(=O)OC)C(C)C)[nH]4)cc(F)c3-2)[nH]1)C1CCO[C@H](C)C1` (single isomer, unassigned) [Compound 140], the IC50 in test [1] (setting [5]) turned out to be 5.51 nM; in test [2] (read-out: 2B IC50, replicon 2B) it was 8.69 nM; in test [3] it was 40.7 pM.
The like results for `COC(=O)NC(C(=O)N1CCC[C@H]1c1ncc(-c2ccc3c(c2)cc2n3C(c3ccc(C4CC4)s3)Oc3cc(-c4cnc([C@@H]5CCCN5C(=O)[C@@H](NC(=O)OC)C(C)C)[nH]4)cc(F)c3-2)[nH]1)C1CCO[C@H](C)C1` (single isomer, unassigned) [Compound 141] were, in that order, 12.8 nM, 21.4 nM and 58.4 pM.
Consider `CCc1ccc(C2Oc3cc(-c4cnc([C@@H]5CCCN5C(=O)[C@@H](NC(=O)OC)C(C)C)[nH]4)cc(F)c3-c3cc4cc(-c5cnc([C@@H]6CCCN6C(=O)C(NC(=O)OC)C6C[C@@H](C)O[C@@H](C)C6)[nH]5)ccc4n32)s1` (single isomer, unassigned) [Compound 142], for which the IC50 in test [1] (setting [5]) is 0.25 nM; in test [2] (read-out: 2B IC50, replicon 2B) it was 0.48 nM; in test [3], 2 pM.
The like results for `CCc1ccc(C2Oc3cc(-c4cnc([C@@H]5CCCN5C(=O)[C@@H](NC(=O)OC)C(C)C)[nH]4)cc(F)c3-c3cc4cc(-c5cnc([C@@H]6CCCN6C(=O)C(NC(=O)OC)C6C[C@@H](C)O[C@@H](C)C6)[nH]5)ccc4n32)s1` (single isomer, unassigned) [Compound 145] were, in that order, 5.22 nM, 1.62 nM and 2.2 pM.
As to `CCc1ccc(C2Oc3cc(-c4cnc([C@@H]5CCCN5C(=O)[C@@H](NC(=O)OC)C(C)C)[nH]4)cc(F)c3-c3cc4cc(-c5cnc([C@@H]6CCCN6C(=O)C(NC(=O)OC)C6CCOC(C)(C)C6)[nH]5)ccc4n32)s1` (single isomer, unassigned) [Compound 146], the IC50 in test [1] (setting [5]) is 0.57 nM; in test [2] (read-out: 2B IC50, replicon 2B), 0.38 nM; in test [3] it was 1.2 pM.
As to `CCc1ccc(C2Oc3cc(-c4cnc([C@@H]5CCCN5C(=O)[C@@H](NC(=O)OC)C(C)C)[nH]4)cc(F)c3-c3cc4cc(-c5cnc([C@@H]6CCCN6C(=O)C(NC(=O)OC)C6CCOC(C)(C)C6)[nH]5)ccc4n32)s1` (single isomer, unassigned) [Compound 147], the IC50 in test [1] (setting [5]) came out at 0.43 nM; in test [2] (read-out: 2B IC50, replicon 2B) it was 0.62 nM; in test [3], 2.5 pM.
For `CCc1ccc(C2Oc3cc(-c4cnc([C@@H]5CCCN5C(=O)[C@@H](NC(=O)OC)C(C)C)[nH]4)cc(F)c3-c3cc4cc(-c5cnc([C@@H]6CCCN6C(=O)C(NC(=O)OC)C6CCOC(C)(C)C6)[nH]5)ccc4n32)s1` (single isomer, unassigned) [Compound 148], the IC50 in test [1] (setting [5]) is 10.2 nM; in test [2] (read-out: 2B IC50, replicon 2B), 13.2 nM; in test [3], 91.9 pM.
As for `CCc1ccc(C2Oc3cc(-c4cnc([C@@H]5CCCN5C(=O)[C@@H](NC(=O)OC)C(C)C)[nH]4)cc(F)c3-c3cc4cc(-c5cnc([C@@H]6CCCN6C(=O)C(NC(=O)OC)C6CCOC(C)(C)C6)[nH]5)ccc4n32)s1` (single isomer, unassigned) [Compound 149], the IC50 in test [1] (setting [5]) was 25.9 nM; in test [2] (read-out: 2B IC50, replicon 2B), 24.8 nM; in test [3], 129 pM.
The like results for `CCc1ccc(C2Oc3cc(-c4cnc([C@@H]5CCCN5C(=O)[C@@H](NC(=O)OC)C(C)C)[nH]4)cc(F)c3-c3cc4cc(-c5cnc([C@@H]6CCCN6C(=O)C(NC(=O)OC)C6CCOC(C)(C)C6)[nH]5)ccc4n32)s1` (single isomer, unassigned) [Compound 152] were, in that order, 0.48 nM, 0.53 nM and 1.6 pM.
The corresponding values for `CCc1ccc(C2Oc3cc(-c4cnc([C@@H]5CCCN5C(=O)[C@@H](NC(=O)OC)C(C)C)[nH]4)cc(F)c3-c3cc4cc(-c5cnc([C@@H]6CCCN6C(=O)C(NC(=O)OC)C6CCOC(C)(C)C6)[nH]5)ccc4n32)s1` (single isomer, unassigned) [Compound 153] are 0.422 nM, 0.51 nM and 2.1 pM.
Regarding `CCc1ccc(C2Oc3cc(-c4cnc([C@@H]5CCCN5C(=O)C(NC(=O)OC)C5C[C@@H](C)O[C@@H](C)C5)[nH]4)cc(F)c3-c3cc4cc(-c5cnc([C@@H]6CCCN6C(=O)[C@@H](NC(=O)OC)C(C)C)[nH]5)ccc4n32)s1` (single isomer, unassigned) [Compound 154], the IC50 is 0.36 nM in test [1] (setting [5]); 0.55 nM in test [2] (read-out: 2B IC50, replicon 2B); 1.7 pM in test [3].
The like results for `CCc1ccc(C2Oc3cc(-c4cnc([C@@H]5CCCN5C(=O)C(NC(=O)OC)C5C[C@@H](C)O[C@@H](C)C5)[nH]4)cc(F)c3-c3cc4cc(-c5cnc([C@@H]6CCCN6C(=O)[C@@H](NC(=O)OC)C(C)C)[nH]5)ccc4n32)s1` (single isomer, unassigned) [Compound 157] were, in that order, 2.32 nM, 2.8 nM and 2.1 pM.
The corresponding values for `CCc1ccc(C2Oc3cc(-c4cnc([C@@H]5CCCN5C(=O)C(NC(=O)OC)C5CCOC(C)(C)C5)[nH]4)cc(F)c3-c3cc4cc(-c5cnc([C@@H]6CCCN6C(=O)[C@@H](NC(=O)OC)C(C)C)[nH]5)ccc4n32)s1` (single isomer, unassigned) [Compound 158] are 1.07 nM, 0.43 nM and 3.3 pM.
The like results for `CCc1ccc(C2Oc3cc(-c4cnc([C@@H]5CCCN5C(=O)C(NC(=O)OC)C5CCOC(C)(C)C5)[nH]4)cc(F)c3-c3cc4cc(-c5cnc([C@@H]6CCCN6C(=O)[C@@H](NC(=O)OC)C(C)C)[nH]5)ccc4n32)s1` (single isomer, unassigned) [Compound 159] were, in that order, 0.77 nM, 0.45 nM and 2.5 pM.
For the compound `CCc1ccc(C2Oc3cc(-c4cnc([C@@H]5CCCN5C(=O)C(NC(=O)OC)C5CCOC(C)(C)C5)[nH]4)cc(F)c3-c3cc4cc(-c5cnc([C@@H]6CCCN6C(=O)[C@@H](NC(=O)OC)C(C)C)[nH]5)ccc4n32)s1` (single isomer, unassigned) [Compound 160], the IC50 in test [1] (setting [5]) stood at 24.9 nM; in test [2] (read-out: 2B IC50, replicon 2B) it was 19.1 nM; in test [3], 114 pM.
The like results for `CCc1ccc(C2Oc3cc(-c4cnc([C@@H]5CCCN5C(=O)C(NC(=O)OC)C5CCOC(C)(C)C5)[nH]4)cc(F)c3-c3cc4cc(-c5cnc([C@@H]6CCCN6C(=O)[C@@H](NC(=O)OC)C(C)C)[nH]5)ccc4n32)s1` (single isomer, unassigned) [Compound 164] were, in that order, 0.13 nM, 0.53 nM and 1.5 pM.
On to `CCc1ccc(C2Oc3cc(-c4cnc([C@@H]5CCCN5C(=O)C(NC(=O)OC)C5CCOC(C)(C)C5)[nH]4)cc(F)c3-c3cc4cc(-c5cnc([C@@H]6CCCN6C(=O)[C@@H](NC(=O)OC)C(C)C)[nH]5)ccc4n32)s1` (single isomer, unassigned) [Compound 165], for which the IC50 in test [1] (setting [5]) was determined as 0.27 nM; in test [2] (read-out: 2B IC50, replicon 2B), 0.24 nM; in test [3], 2 pM.
Take `COC(=O)NC(C(=O)N1CCC[C@H]1c1ncc(-c2cc(F)c3c(c2)OC(c2ccc(C4CC4)s2)n2c-3cc3cc(-c4cnc([C@@H]5CCCN5C(=O)[C@@H](NC(=O)OC)C5CCOCC5)[nH]4)ccc32)[nH]1)C(C)(C)F` (single isomer, unassigned) [Compound 171]: the IC50 was found to be 1.4 nM in test [1] (setting [5]); 4.06 nM in test [2] (read-out: 2B IC50, replicon 2B); 13.1 pM in test [3].
